These results are taken from patent US10556902B2 (Asceneuron SA, priority 2016, dated 2020).

Where only a bound is given, the exact number is not on record here.

For this assay, the target named is His-Tagged hOGA (human O-GlcNAcase) (Homo sapiens (Human), UniProt O60502). As to the kind of experiment: Human O-GlcNAcase enzyme inhibition assay.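 Note: reactions contained 20 nM His-tagged hOGA enzyme with 10 µM FL-GlcNAc substrate.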 As to conditions: OGA enzyme inhibition assay; FL-GlcNAc substrate, pH 6.5; activity classes defined in μM; read-out: OGA IC50. Format: biochemical.
Sequence of His-Tagged hOGA (human O-GlcNAcase) (O60502 whole entry): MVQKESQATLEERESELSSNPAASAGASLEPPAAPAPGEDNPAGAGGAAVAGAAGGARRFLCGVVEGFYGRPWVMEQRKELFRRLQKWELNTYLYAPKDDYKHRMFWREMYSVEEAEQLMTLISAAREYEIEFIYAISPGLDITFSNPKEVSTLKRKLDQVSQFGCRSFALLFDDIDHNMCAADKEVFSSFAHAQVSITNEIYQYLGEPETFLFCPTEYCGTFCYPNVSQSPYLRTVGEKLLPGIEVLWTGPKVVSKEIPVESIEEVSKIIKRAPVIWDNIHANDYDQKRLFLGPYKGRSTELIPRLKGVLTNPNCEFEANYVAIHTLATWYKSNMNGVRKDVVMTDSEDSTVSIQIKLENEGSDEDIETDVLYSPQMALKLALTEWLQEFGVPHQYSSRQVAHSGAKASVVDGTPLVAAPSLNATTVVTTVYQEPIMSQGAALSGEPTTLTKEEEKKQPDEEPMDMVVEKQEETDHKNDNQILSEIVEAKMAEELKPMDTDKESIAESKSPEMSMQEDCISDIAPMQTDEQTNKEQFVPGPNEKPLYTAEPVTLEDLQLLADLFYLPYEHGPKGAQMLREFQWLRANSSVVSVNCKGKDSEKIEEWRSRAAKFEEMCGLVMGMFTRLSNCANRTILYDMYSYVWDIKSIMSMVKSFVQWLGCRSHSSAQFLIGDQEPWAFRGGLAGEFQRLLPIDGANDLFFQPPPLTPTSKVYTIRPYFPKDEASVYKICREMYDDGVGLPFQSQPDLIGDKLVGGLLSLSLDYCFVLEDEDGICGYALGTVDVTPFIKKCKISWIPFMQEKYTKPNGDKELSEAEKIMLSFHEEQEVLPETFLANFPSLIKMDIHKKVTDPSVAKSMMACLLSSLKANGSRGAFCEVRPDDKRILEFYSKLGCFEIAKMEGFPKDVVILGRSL
Description: Then, 20 nM of His-Tagged hOGA and 10 μM of FL-GlcNAc (Fluorescein mono-beta-D-(2-deoxy-2-N-acetyl) glucopyranoside; Marker Gene Technologies Inc, M1485) were added to the 384-well plate for a final volume of 20 μl.
The term IC50 denotes the concentration that gives 50% inhibition. Turning to `CC(c1ccc2cccnc2n1)N1CCN(c2ncc(C(F)(F)F)cn2)CC1` (racemic) [Example 92, 2-(1-(4-(5-(trifluoromethyl)pyrimidin-2-yl)piperazin-1-yl)ethyl)-1,8-naphthyridine], the half-maximal inhibitory concentration (IC50) lay within 0.05 to 0.2 µM.

With `CC(c1cnc2cccnc2c1)N1CCN(c2ncc(C(F)(F)F)cn2)CC1` (racemic) [Example 93, 3-(1-(4-(5-(trifluoromethyl)pyrimidin-2-yl)piperazin-1-yl)ethyl)-1,5-naphthyridine], the half-maximal inhibitory concentration (IC50) was in the range of 0.2 to 1 µM.

Turning to `CC(c1ccc2nccnc2c1)N1CCN(c2ncc(C3=CCCC3)cn2)CC1` (racemic) [Example 94, 6-(1-(4-(5-(cyclopent-1-en-1-yl)pyrimidin-2-yl)piperazin-1-yl)ethyl)quinoxaline], the half-inhibitory concentration (IC50) fell in the range of 0.2 to 1 µM.

In the case of `COC(=O)c1cnc(N2CCN(C(C)c3ccc4scnc4c3)CC2)nc1` (racemic) [Example 95, Methyl 2-(4-(1-(benzo[d]thiazol-5-yl)ethyl)piperazin-1-yl)pyrimidine-5-carboxylate], the IC50 is under 0.05 µM.

For the compound `CNC(=O)c1cnc(N2CCN(C(C)c3ccc4scnc4c3)CC2)nc1` (racemic) [Example 96, 2-(4-(1-(benzo[d]thiazol-5-yl)ethyl)piperazin-1-yl)-N-methylpyrimidine-5-carboxamide], the IC50 is under 0.05 µM.

`CC(c1ccc2scnc2c1)N1CCN(c2ncc(C(=O)N(C)C)cn2)CC1` (racemic) [Example 97, 2-(4-(1-(benzo[d]thiazol-5-yl)ethyl)piperazin-1-yl)-N,N-dimethylpyrimidine-5-carboxamide]: the IC50 was under 0.05 µM.

In the case of `COC(=O)c1cnc(N2CCN(C(C)c3ccc4c(c3)OCC4)CC2)nc1` (racemic) [Example 98, Methyl 2-(4-(1-(2,3-dihydrobenzofuran-6-yl)ethyl)piperazin-1-yl)pyrimidine-5-carboxylate], the IC50 was under 0.05 µM.

As for `CNC(=O)c1cnc(N2CCN(C(C)c3ccc4c(c3)OCC4)CC2)nc1` (racemic) [Example 99, 2-(4-(1-(2,3-dihydrobenzofuran-6-yl)ethyl)piperazin-1-yl)-N-methylpyrimidine-5-carboxamide], the IC50 was under 0.05 µM.

In the case of `CC(c1ccc2c(c1)OCC2)N1CCN(c2ncc(C(=O)N(C)C)cn2)CC1` (racemic) [Example 100, 2-(4-(1-(2,3-dihydrobenzofuran-6-yl)ethyl)piperazin-1-yl)-N,N-dimethylpyrimidine-5-carboxamide], the IC50 was under 0.05 µM.

With `CC(c1ccc2c(c1)OCC2)N1CCN(c2nccc(C(=O)N(C)C)n2)CC1` (racemic) [Example 101, 2-(4-(1-(2,3-dihydrobenzofuran-6-yl)ethyl)piperazin-1-yl)-N,N-dimethylpyrimidine-4-carboxamide], the IC50 is under 0.05 µM.

Take `COC(=O)c1ccnc(N2CCN(C(C)c3ccc4c(c3)OCC4)CC2)n1` (racemic) [Example 102, Methyl 2-(4-(1-(2,3-dihydrobenzofuran-6-yl)ethyl)piperazin-1-yl)pyrimidine-4-carboxylate]: the concentration for half-maximal inhibition (IC50) is under 0.05 µM.

`CNC(=O)c1ccnc(N2CCN(C(C)c3ccc4c(c3)OCC4)CC2)n1` (racemic) [Example 103, 2-(4-(1-(2,3-dihydrobenzofuran-6-yl)ethyl)piperazin-1-yl)-N-methylpyrimidine-4-carboxamide]: the half-inhibitory concentration (IC50) is under 0.05 µM.

Consider `CC(=O)NC(C)(C)c1cnc(N2CCN(C(C)c3ccc4c(c3)OCC4)CC2)nc1` (racemic) [Example 104], for which the IC50 is under 0.05 µM.

For the compound `COC(=O)c1cnc(N2CCN(C(C)c3ccc4nccnc4c3)CC2)nc1` (racemic) [Example 105, Methyl 2-(4-(1-(quinoxalin-6-yl)ethyl)piperazin-1-yl)pyrimidine-5-carboxylate], the IC50 lay within 0.05 to 0.2 µM.

In the case of `CC(c1ccc2nccnc2c1)N1CCN(c2ncc(C(=O)O)cn2)CC1` (racemic) [Example 106, 2-(4-(1-(quinoxalin-6-yl)ethyl)piperazin-1-yl)pyrimidine-5-carboxylic acid], the IC50 lay within 0.05 to 0.2 µM.
